How the values were obtained:
[1] = tested on: collagen-stimulated blood platelets; test: Inhibition of collagen-induced thrombocytopenia in anesthetized guinea pigs; format: in vivo, guinea pig; settings: for % Thrombocytopenia Inhibition: average ± SEM
Text: Reversible thrombocytopenias are produced on anesthetized guinea pigs by injection of collagen ([…] i.v.). The cause of these thrombocytopenias is an aggregate formation of the collagen-stimulated blood platelets and the embolization of these platelet aggregates in the lungs, where they then lodge and thus cause the observed drops of the platelet count in the blood (thrombocytopenias).

[2] = tested on: occluding platelet thrombi on mesenteric arterioles; test: Thrombogenic ADP concentration for occluding platelet thrombi on previously traumatized mesenteric arterioles; format: in vivo, guinea pig; settings: for Thrombogenic ADP Concentration, Increase: N 5, average
Procedure: A mesenteric loop is placed on an anesthetized guinea pig and is superfused with a moderately heated solution of common salt. Under intravital microscopic control the vascular wall of a mesenteric arteriole (020-50 m) is traumatized by a series of electric pulses. By subsequent local application of increasing concentrations of ADP (adenosine diphosphate) solution a thrombogenic ADP concentration is determined, at which an occluding platelet thrombus forms on the pretraumatized site of the arteriole. This thrombogenic ADP concentration produces vascular-specific and reproducible thrombi in the respective arteriole.

[3] = tested on: thrombus formation in carotid arteries; test: Thrombus formation in carotid arteries previously traumatized by pressure + cold (thrombus hemoglobin content); format: in vivo, guinea pig
Procedure: A 2-cm-long piece of the external left carotid artery on an anesthetized guinea pig is carefully exposed and drawn over a small metal plate. Then the vascular wall is weighted down over a length of 1 cm for 3 minutes with a steel stamp weighing 200 g, cooled to -15° C. In this way, a massive local vascular trauma is caused on a large artery and a red thrombus develops on the traumatized site. Three hours after the trauma the traumatized segment and an equally long piece of the contralateral artery are removed, asked and put in hemoglobin test reagent. The hemoglobin contents of the two segments are determined 24 hours later. The net hemoglobin content of the red thrombus as the measurement of the thrombus size is calculated from the difference of these hemoglobin contents.

[4] = tested on: PAI-1 release of human platelets; test: Inhibition of PAI-1 release from collagen-stimulated human platelets (ELISA); format: cell-based; settings: Platelet, N = 6, % of control
Procedure: (§1) Human platelet-rich plasma (PRP) is incubated in an aggregometer at 37° C. and mixed with […] of collagen to cause aggregation. […] The course of the aggregation is recorded in the aggregometer. 10 minutes after collagen addition, the samples are centrifuged at 3000 rpm and the supernatant is tested with an enzyme linked immunosorbent assay (ELISA) for its content of plasminogen activator inhibitor-1 (PAI-1) and with a radioimmunoassay (RIA) for the content of platelet-derived growth factor (PDGF).

human platelets = test: Inhibition of collagen-stimulated aggregation of human platelets in platelet-rich plasma (aggregometer); format: cell-based
Procedure: as §1

[5] = tested on: PDGF release of human platelets; test: Inhibition of PDGF release from collagen-stimulated human platelets (RIA); format: cell-based; settings: Platelet, N = 6, % of control
Procedure: as §1

## CC(=O)Oc1ccccc1C(=O)O [ASA, acetylsalicylic acid]
[1]; ASA 0.5 mg/kg i.v.
  thrombocytopenia inhibition, in words: weakly inhibiting
[1]; ASA 0.5 mg/kg i.v., N 8, p less than 0.05 vs control
  % Thrombocytopenia Inhibition: 17 ± 3%
[2]; ASA 10 mg/kg i.v.
  change of thrombogenic ADP concentration, in words: does not change the thrombogenic ADP concentration
[2]; ASA 10 mg/kg, SEM ±0.13, n.s.
  Thrombogenic ADP Concentration, Increase: 0.06
[3]; ASA 5 mg/kg i.v.
  effect on thrombus formation in the carotid artery, in words: no significant effect
[3]; ASA 5 mg/kg, N 10, Q 25/Q 75 -0.1/13.8, n.s., control 8.6
  Thrombus Hb content, Median: 3.4 µmol

## CCC#CC[C@H](C)[C@H](O)C#C[C@@H]1[C@H]2C/C(=C/COCC(=O)O)C[C@H]2C[C@H]1O [Cicaprost]
[4]; Cicaprost 10^-7 M
  inhibition at 0.1 µM: 80 ± 5%
[4]; Cicaprost 10^-8 M
  inhibition at 0.01 µM: 72 ± 3%
[4]; Cicaprost 10^-9 M
  inhibition at 0.001 µM: 0%
[4]; Cicaprost 10^-10 M
  inhibition at 0.0001 µM: 0%
[1]; Cicaprost 1 ng/kg/min i.v., separately
  thrombocytopenia inhibition, in words: ineffective
[1]; Cicaprost 1 ng/kg/min i.v., N 6, n.s.
  % Thrombocytopenia Inhibition: 8 ± 5%
[1]; Cicaprost 3 ng/kg/min, N 6, p less than 0.05 vs control
  % Thrombocytopenia Inhibition: 36 ± 4%
[1]; vs 1 ng/kg/min i.v. in combination with ASA 0.5 mg/kg
  higher dose of Cicaprost alone needed for the effect of the combination: three-fold higher dose
[2]; 100 ng/kg/min i.v. alone vs 10 ng/kg/min in combination
  higher dosage of Cicaprost alone needed for the antithrombotic action of the combination: 10 fold
[2]; Cicaprost 10 ng/kg/min i.v.
  change of thrombogenic ADP concentration, in words: not significantly effective
[2]; Cicaprost 10 ng/kg/min, SEM ±0.39, n.s.
  Thrombogenic ADP Concentration, Increase: 0.36
[2]; Cicaprost 30 ng/kg/min, SEM ±0.20, p less than 0.05 vs control
  Thrombogenic ADP Concentration, Increase: 1.02
[2]; Cicaprost 100 ng/kg/min i.v., N=5
  increase of the thrombogenic ADP concentration: 1.32±0.2 log M
[2]; Cicaprost 100 ng/kg/min, SEM ±0.20, p less than 0.05 vs control
  Thrombogenic ADP Concentration, Increase: 1.32
Human platelets; Cicaprost 10^-10 or 10^-9 M, separately
  platelet aggregation inhibition, in words: ineffective
Human platelets; Homo sapiens, Platelet, Cicaprost 10^-7 M, N = 6, % of control
  inhibition at 0.1 µM: 95 ± 3%
Human platelets; Homo sapiens, Platelet, Cicaprost 10^-8 M, N = 6, % of control
  inhibition at 0.01 µM: 95 ± 4%
Human platelets; Homo sapiens, Platelet, Cicaprost 10^-9 M, N = 6, % of control
  inhibition at 0.001 µM: 0%
Human platelets; Homo sapiens, Platelet, Cicaprost 10^-10 M, N = 6, % of control
  inhibition at 0.0001 µM: 4 ± 3%
[3]; Cicaprost 0.3 ng/kg/min, N 10, Q 25/Q 75 8.0/25.0, n.s., control 8.6
  Thrombus Hb content, Median: 12.4 µmol
[3]; Cicaprost 1.0 ng/kg/min, N 10, Q 25/Q 75 0.2/5.8, significant vs control 8.6
  Thrombus Hb content, Median: 1.9 µmol
[3]; Cicaprost 3.0 ng/kg/min, N 11, Q 25/Q 75 -0.4/0.7, significant vs control 8.6
  Thrombus Hb content, Median: 0 µmol
[3]; dosage printed C.3 ng/kg/min i.v.
  effect on thrombus formation in the carotid artery, in words: significantly effective
[5]; Cicaprost 10^-7 M
  inhibition at 0.1 µM: 81 ± 1%
[5]; Cicaprost 10^-8 M
  inhibition at 0.01 µM: 81 ± 3%
[5]; Cicaprost 10^-9 M
  inhibition at 0.001 µM: 3 ± 3%
[5]; Cicaprost 10^-10 M
  inhibition at 0.0001 µM: 1 ± 2%

— patent US5093325A, “Combination preparation having antithrombotic action” (priority 1989, dated 1992)
